We go through 13 molecules from patent publication US20190225652A1, “GENERATION OF PEPTIDES” (Hexima Limited, priority 2015, published 2019).

To fix the notation:
B1: rOaAEP3: recombinant Oldenlandia affinis asparaginyl endopeptidase OaAEP3 (protein)
chain: MVRYLAGAFQVVLLVVILSDIAISEERTDGYLKLPTEVSRFFRTPEQSSDGGDDSIGTRWAVLIAGSKGYDNYRHQADVCHAYQILKRGGLKDENIVVFMYDDIAYNESNPRPGVIINSPHGSDVYAGVPKDYTGDEVNAKNFLAAILGNKSAITGGSGKVVDSGPNDHIFIYYTDHGAPGVIGMPSKPYLYADELNDALRKKHASGTYKSMVFYLEACEAGSMFDGLLPDGLNIYALTASNTTEGSWCYYCPGQDAGPPPEYSVCLGDFFSIAWLEDSDVHNLRSETLNQQYHNVKNRISYASHATQYGDLKRGVEGLFLYLGSNPENDNYTFVDDNVVRPSSKAVNQRDADLVHFWEKFRKAPEGSSKKEEAQKQILEAMSHRVHIDSSINLIGKLLFGIEKGHKILTAVRSAGHPLVDDWACLRSLVRTFETHCGSLSQYGMKHTRTLANICNAGITEEQMAEAASQACVSIPSNPWSSHDGGFSA
modifications: Oldenlandia affinis OaAEP3
B2: rOaAEP4: recombinant Oldenlandia affinis asparaginyl endopeptidase OaAEP4 (protein)
chain: MVRYPAGAVLLLVVLSVVAVDGARDGYLKLPSEVSDFFRPRNTNDGDDSVGTRWAVLLAGSNGYWNYRHQADLCHAYQILKRGGLKDENIVVFMYDDIAYNEENPRPGVIINSPHGSDVYAGVPKDYTGDEVNAKNFLAAILGNKSAITGGSGKVVDSGPNDHIFIYYTDHGAPGVIGMPSKPYLYADELNDALRKKHASGTYKSMVFYLEACEAGSMFDGLLPDGLNIYALTASNTTEGSWCYYCPGQDAGPPPEYSVCLGDFFSIAWLEDSDVHNLRSETLNQQYHNVKNRISYASHATQYGDLKRGVEGLFLYLGSNPENDNYTFVDDNVVRPSSKAVNQRDADLVHFWEKFRKAPEGSSKKEEAQKQILEAMSHRVHIDSSINLIGKLLFGIEKGHKILTAVRSAGHPLVDDWACLRSLVRTFETHCGSLSQYGMKHTRTLANICNAGITEEQMAEAASQACVSIPSNPWSSHDGGFSA
modifications: OaAEP4 aa
notes: recombinant Oldenlandia affinis asparaginyl endopeptidase OaAEP4

Chain of rOaAEP1b (as listed by the source): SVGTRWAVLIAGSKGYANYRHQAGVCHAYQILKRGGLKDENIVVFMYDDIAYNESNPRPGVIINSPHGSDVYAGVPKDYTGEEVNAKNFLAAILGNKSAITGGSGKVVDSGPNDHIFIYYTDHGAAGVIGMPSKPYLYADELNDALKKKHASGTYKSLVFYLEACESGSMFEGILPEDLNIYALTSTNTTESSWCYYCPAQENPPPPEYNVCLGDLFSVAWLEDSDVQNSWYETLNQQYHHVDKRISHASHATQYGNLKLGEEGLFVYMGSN

One assay deals with rOaAEP1b, rOaAEP3, rOaAEP4 and rOaAEP5. As to the kind of experiment: Cyclization assay with rOaAEP1b, rOaAEP3, rOaAEP4 and rOaAEP5 (MALDI/ESI MS). In kind it is biochemical, Oldenlandia affinis. As to conditions: peptides with added AEP recognition residues, 280 μM, enzymes 19.7 μg mL^−1 total protein, MS. On the procedure:
Linear target peptides (280 μM, unless otherwise indicated) were incubated with rOaAEP1b, rOaAEP3, rOaAEP4 or rOaAEP5 (total protein concentration as indicated in the description of figures) in activity buffer (50 mM sodium acetate, 50 mM NaCl, 1 mM ethylenediaminetetraacetic acid [EDTA], 0.5 μM Tris(2-carboxyethyl)phosphine hydrochloride [TCEP], pH 5). The reaction was allowed to proceed for up to 22 hours at room temperature and was analysed by matrix-assisted laser desorption/ionization mass spectrometry (MALDI MS), high performance liquid chromatography (HPLC) or nuclear magnetic resonance (NMR) as appropriate.
Cyclization or inter-molecular ligation of linear target peptides was monitored by MALDI or ESI MS. In both cases, the reaction mixture (5-50 μL) was de-salted using C18 zip tips (Millipore) and eluted in 4 μL 50-75% v/v acetonitrile, 0.1% v/v trifluoroacetic acid (TFA).
For MALDI MS, a saturated MALDI matrix solution (α-cyano-4-hyroxycinnamic acid, CHCA, Bruker) prepared in 95% v/v acetonitrile, 0.1% v/v TFA was diluted 1:22 such that the final matrix solution comprised 90% v/v acetonitrile, 0.1% v/v TFA and 1 mM NH4H2PO4. Eluted samples were mixed 1:4 with the MALDI matrix, spotted onto a MALDI plate and analyzed by an Ultraflex III TOF/TOF (Bruker) in positive reflector mode. Data were analyzed using the flexAnalysis program (Bruker).
For ESI MS, 96 μl of 75% v/v acetonitrile, 01% v/v TFA was added to the de-salted sample. The sample was then injected into a MicroTOF Q (Bruker) and data was collected in positive ionisation mode. The mass of ligated or cyclized product was determined by charge deconvolution using the Compass DataAnalysis program (Bruker).
The ability of activated AEPs (rOaAEP1b, rOaAEP3, rOaAEP4 and rOaAEP5) to cyclize peptide substrates structurally unrelated to cyclotides was tested in the cyclization assay described in the Materials and Methods. The anti-malarial peptide R1 (Harris et al. (2009) J Biol Chem 284(14):9361-9371; Harris et al. (2005) Infect Immun 73(10):6981-6989); Bac2A, a linear derivative of the bovine peptide bactenecin (Wu and Hancock (1999) Antimicrob Agents Ch 43:1274-1276); and the anti-fungal peptide EcAMP1 (Nolde et al. (2011) J Biol Chem 286(28):25145-25153) were produced with additional AEP recognition residues and used as the substrates.
To investigate the sequence requirements for in vitro cyclization, R1 was used as a model peptide. The recognition residues added to this model peptide were sequentially trimmed to determine the minimal requirements for AEP-mediated cyclization. The N- and C-terminal recognition residues were also substituted with alternate amino acids to determine if particular classes of residues were preferred for cyclization by these recombinant AEPs. The ability of activated AEPs (rOaAEP1b, rOaAEP3, rOaAEP4 and rOaAEP5) to cyclize the R1 peptide with varied flanking sequences was then tested in the cyclization assay described in the Materials and Methods (FIG. 10; Table 3).
For “GLPVFAEFLPLFSKFGSRMHILKSTRNGL (R1) [anti-malarial peptide R1 produced with additional AEP recognition residues]”, the “cyclization of linear precursor peptide by recombinant AEPs” value (“cyclization of linear precursor peptide” for short) is listed as “efficiently cyclized”.
Consider “GLPGSGRGSCRSQCMRRHEDEPWRVQECVSQCRRRRGGGDTRNGLP (additional AEP recognition residues; EcAMP1) [anti-fungal peptide EcAMP1 with additional AEP recognition residues]”, for which the “cyclization of linear precursor peptide” value is “efficiently cyclized”.
On to GLPRLARIVVIRVARTRNGLP (Bac2A), for which the “cyclization of linear precursor peptide” value is “efficiently cyclized”.

For another assay, the system named is target peptide-linker-ubiquitin-6xHis fusion protein. As to the kind of experiment: AEP-mediated processing of target peptides fused to ubiquitin. Conditions: kalata B1-ubiquitin 260 μg mL^−1, AEP 19.7 μg mL^−1 total protein, 22 h, SDS-PAGE/anti-6xHis Western blot. In kind it is biochemical. For orientation: In western blotting, separated proteins are transferred to a membrane and probed.
For “rOaAEP5: recombinant Oldenlandia affinis asparaginyl endopeptidase OaAEP5”, the “proportion of fusion protein enzymatically processed (loss of precursor)” value is “the bulk of the precursor was being enzymatically processed”.
Still for that read-out and setting: the result for B1 reads “the bulk of the precursor was being enzymatically processed”; that for B2, “a smaller proportion of the precursor protein was processed”.

The subject of another assay is rOaAEP1b. As to the kind of experiment: Cyclization assay with rOaAEP1b (MALDI MS). Type of assay: biochemical, Oldenlandia affinis. As to conditions: MALDI MS.
Regarding “VFAEFLPLFSKFGSRMHILK [native R1 peptide, reference compound]”, the “processing/cyclization by rOaAEP1b” value was “No processing”.

The same assay, now with this note: rOaAEP1b 12 μg mL^−1 total protein, 22 hours; peak area as percentage of total peak area of that peptide; average of three experiments.
For “QLVFAEFLPLFSKFGSRMHILKNGL (rOaAEP1b-mediated processing) [SEQ ID NO: 30, R1 peptide derivative]”, the “Cyclic product (%)” value was determined as 93.1% and the “Linear precursor (%)” value was 6.9%.
The like results for “GLPVFAEFLPLFSKFGSRMHILKSTRNGLP (rOaAEP1b-mediated processing) [SEQ ID NO: 26, R1 peptide derivative]” were, in that order, 78.8% and 21.2%.
For “GLVFAEFLPLFSKFGSRMHILKNG (rOaAEP1b-mediated processing) [SEQ ID NO: 28, R1 peptide derivative]”, the “Linear precursor (%)” value is recorded as 100%.
With “KLVFAEFLPLFSKFGSRMHILKNGL (rOaAEP1b-mediated processing) [SEQ ID NO: 31, R1 peptide derivative]”, the “Cyclic product (%)” value is listed as 82.2% and the “Linear precursor (%)” value amounted to 17.8%.
As to “GLVFAEFLPLFSKFGSRMHILKNGL (rOaAEP1b-mediated processing) [SEQ ID NO: 27, R1 peptide derivative]”, the “Cyclic product (%)” value is 92.9% and the “Linear precursor (%)” value came to 7.1%.
Regarding “VFAEFLPLFSKFGSRMHILKNGL (rOaAEP1b-mediated processing) [SEQ ID NO: 29, R1 peptide derivative]”, the “Cyclic product (%)” value is listed as 49.6%, the “Linear precursor (%)” value worked out at 27.7% and the “Linear product (%)” value is on record as 27.7%.

Tested on in a further assay: not listed separately
As to the kind of experiment: Protease activity against fluorogenic substrate Z-AAN-MCA. Type of assay: biochemical. As to conditions: enzyme ~5 μg mL^−1 total protein, Z-AAN-MCA 100 μM, 37° C., 60 minutes. Here is the method:
FIG. 15 is a graphical representation of the activity of recombinant O. affinis AEPs (˜5 μg mL^−1 total protein) and rhuLEG (1 μg mL^−1 total protein) over time against the fluorogenic substrate Z-AAN-MCA (100 μM). Activity is tracked at 1 minute intervals at 37° C. for 60 minutes using excitation and emission wavelengths of 360 and 460 nm respectively. A single representative experiment is shown. RFU, relative fluorescence units.
To assay activity of recombinant AEPs (rOaAEP1b, rOaAEP3, rOaAEP4 or rOaAEP5) against both internally-quenched and other fluorescent peptides, substrate and enzyme were diluted as appropriate in activity buffer (50 mM sodium acetate, 50 mM NaCl, 1 mM EDTA, 0.5 μM TCEP, pH 5). To assay activity of recombinant human legumain (rhuLEG; R&D systems) against the same substrates, the enzyme was first activated by incubation in 50 mM sodium acetate, 100 mM NaCl, pH 4 (4 μL buffer/1 μL enzyme) for 2 hours at 37° C. Substrates and activated rhuLEG were diluted in 50 mM acetate, 0.1% v/v triton X 100, 0.5 μM TCEP pH 5.5 or in 50 mM MES, 250 mM NaCl, pH 5 as required. Diluted enzyme and substrate were added to black, flat bottomed microtiter plates in a total assay volume of 100-200 μL. The change in fluorescence intensity over time was monitored on a SpectraMax M2 (Molecular Devices) using excitation/emission wavelengths of 320/420 nm (IQF peptides) or 360/460 nm (other fluorescent peptides).
AEP activity has traditionally been tracked by monitoring cleavage of the fluorescent substrate Z-AAN-MCA (where Z is carboxybenzyl; MCA is 7-amido-4-methylcoumarin) [Saska et al. (2007) supra; Rotari et al. (2001) Biol. Chem. 382:953-959]. Cleavage C-terminal to the Asn liberates the fluorophore which then fluoresces to report substrate cleavage. […] They are Ac-YVAD-CHO, which is routinely used to identify AEP activity (Hatsugai et al. (2004) Science 305(5685): 855-858) and Ac-STRN-CHO, which represents the P1-P4 residues of the C-terminal kB1 cleavage site. These traditional routes of identifying AEP activity will therefore likely be ineffective for identification of AEPs with cyclizing ability.
Take “rOaAEP5: recombinant Oldenlandia affinis asparaginyl endopeptidase OaAEP5”: the “activity against Z-AAN-MCA” value is “nor rOaAEP1b, rOaAEP3, rOaAEP4 or rOaAEP5 (FIG. 15) had detectable activity”.
Still for that read-out and setting: the result for B1 reads “nor rOaAEP1b, rOaAEP3, rOaAEP4 or rOaAEP5 (FIG. 15) had detectable activity”; that for B2, “nor rOaAEP1b, rOaAEP3, rOaAEP4 or rOaAEP5 (FIG. 15) had detectable activity”.
